From patent publication US9133164B2, “MIF inhibitors and their uses” (INNOV88 LLC, priority 2011, dated 2015)
Where two headings read alike, the source gives them in different places.

Experiments:
LPS-stimulated PBMCs = assay: Cytokine production in LPS-stimulated human PBMCs (ELISA); assay type: cell-based; conditions: Homo sapiens, PBMC, LPS-stimulated PBMCs, 1 hour preincubation, 20 hours; for inhibition at 2.5 µM: compound at 2.5 uM; for inhibition at 25 µM: compound at 25 uM
Text: (§1) MIF is secreted by monocytes/macrophages, activated T cells and several effector cells that play an important role in the perpetuation of inflammatory responses of the disease pathogenesis of several autoimmune and inflammatory disorders. MIF promotes the production of proinflammatory mediators such as tumor necrosis factor-α (TNF-α), interleukin (IL)-1β, IL-6 and IL-8 acting in an autocrine and paracrine function in the induction of proinflammatory responses. MIF has also been reported to stimulate the production of IL-17, a T helper 17 (Th17)-specific cytokine critical to the pathogenesis of several autoimmune and inflammatory diseases. […] Mono-Mac-6 Cells: The cellular efficacy of compound candidates is determined using the human monocytic cell line, Mono-Mac-6 cells (MM6 cells) as it has been shown that MM6 cells abundantly express MIF receptors CD74 and CXCR4. MIF-mediated signal transduction through these receptors may be important for the production of inflammatory mediators, including TNF-α, IL-1β, IL-6, IL-8, interferon-γ (IFN-γ) and prostaglandin E2 (PGE2) in these cells. To induce the production of inflammatory mediators, MM6 cells will be plated at a final concentration of 5×10^5 cells/ml in RPMI 1640 medium containing 1% heat-inactivated low-pyrogen fetal bovine serum, 2 mM GlutaMAX-I, 1% non-essential amino acids, 1% sodium pyruvate, 100 units/ml penicillin G and 100 μg/ml streptomycin (Gibco BRL Life Technologies). Cells will be stimulated with 100 ng/ml rhMIF purchased commercially or generated in house with or without inhibitor for 20 h at 37° C. with 5% CO2. The supernatants are stored at […] until they are to be assayed. The levels of inflammatory mediators will be determined using commercial :ELISA kits (eBiosciences). Human Peripheral Blood Mononuclear Cells (PBMCs): The cellular efficacy of compound candidates in inhibiting the production of proinflammatory mediators TNF-α, IL-1β, IL-6 and IL-8 following lipopolysaccharide (LPS) and rhMIF stimulation, and the production of T helper 17 (Th17)-specific cytokines IL-17F and IL-22 following anti-CD3/anti-CD28 stimulation, are determined in human PBMCs. To induce the production of proinflammatory cytokine mediators, cryopreserved human PBMCs (Cellular Technology Ltd.) are plated at a final concentration of 2×10^5 cells/ml in RPMI 1640 medium containing 1% heat-inactivated fetal bovine serum, 1% L-Glutamine and 1% Penicillin/Streptomycin (Lonza). Cells are pre-incubated with or without inhibitor compounds dissolved in DMSO for 1 hour, then stimulated with LPS (Sigma Aldrich) or rhMIF to yield final concentrations of <0.1% DMSO, 100 ng/ml LPS and the compound concentration of interest. The potency of the compound candidates in inhibiting cytokine production is compared, to other small molecule MIF inhibitor standards ISO-1 (EMD Chemicals) N-acetyl-p-benzoquinone imine (NAPQI) and Ibudilast (TCI America). Cells were incubated for 20 hours at 37° C., 5% CO2. For the Th17-specific cytokine production assay, cells are stimulated with 5 ug/mL plate immobilized anti-CD3 (eBioscience) and 2 ug/mL soluble anti-CD28 (eBioscience) in the presence or absence of inhibitor compounds dissolved in DMSO to yield final compound concentrations of interest at <0.1% DMSO. Cells were incubated for 72 hours at 37° C. and 5% CO2. The supernatants are stored at −20° C. until they are to be assayed by ELISA. Cell viability is determined using PrestoBlue™ Cell Viability Reagent (Invitrogen). The cytokine production levels of TNF-α, IL-1β, IL-6, IL-8, IL-17F and IL-22 are determined using commercial ELISA kits (eBiosciences). Human Rheumatoid Arthritis Synovial Fibroblast (RASF) Cell Line: RASF cells are cultured in Dulbecco's modified Eagle's medium with 15% FBS, 1% glutamine, and 1% penicillin/streptamycin (all from Gibco (Invitrogen), Gaithersburg, Md.). […]

MIF = target: T1, MIF (Homo sapiens, UniProt P14174); assay: Time dependence in the MIF tautomerase activity assay (preincubation); assay type: biochemical
T1 sequence (P14174 2-115 limits assumed): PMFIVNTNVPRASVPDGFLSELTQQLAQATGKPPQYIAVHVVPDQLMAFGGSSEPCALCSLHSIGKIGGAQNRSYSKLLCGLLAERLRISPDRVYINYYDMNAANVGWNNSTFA
Experimental: (§2) The ability of candidate compounds to inhibit this tautomerase activity is quantitated by wing hydroxyphenyl pyruvic acid (HPP) as a substrate and following the increase in absorbance due to the enzymatic formation of the HPP enol-borate complex at 300 nm in the absence and presence of a test compound. The IC50 value of compounds was determined by plotting the initial velocities determined at 300 nm as a function of a test compound's concentration. Assays were carried out in a 96 or 384 well plate format.
The MIF tautomerase and cytokine inhibitor Compound 1 was designed as a potential irreversible inhibitor of MIF tautomerase activity. In an effort to investigate this mechanism, time dependent inhibitor analysis was carried out. In this experiment MIF was preincubated [P.I.] with Compound 1 for either 0 minutes, 20 minutes or 60 minutes followed by tautomerase enzyme activity determination.
Compound 1 was preincubated with MIF as indicated (0 min-60 min) and, a tautomerase dose-response analysis was carried out.

[1] = system: anti-CD3/anti-CD28-stimulated PBMCs; assay: Th17-specific cytokine production in anti-CD3/anti-CD28-stimulated human PBMCs (ELISA); assay type: cell-based; conditions: PBMC, compound at 2.5 uM, 72 hours
Text: as §1, with “Cells are pre-incubated with or without inhibitor compounds dissolved in DMSO for 1 hour, then stimulated with LPS (Sigma Aldrich) or rhMIF to yield final concentrations of <0.1% DMSO, 100 ng/ml LPS and the compound concentration of interest. The potency of the compound candidates in inhibiting cytokine production is compared, to other small molecule MIF inhibitor standards ISO-1 (EMD Chemicals) N-acetyl-p-benzoquinone imine (NAPQI) and Ibudilast (TCI America). Cells were incubated for 20 hours at 37° C., 5% CO2. For the Th17-specific cytokine production assay, cells are stimulated with 5 ug/mL plate immobilized anti-CD3 (eBioscience) and 2 ug/mL soluble anti-CD28 (eBioscience) in the presence or absence of inhibitor compounds dissolved in DMSO to yield final compound concentrations of interest at <0.1% DMSO. Cells were incubated for 72 hours at 37° C. and 5% CO2. The supernatants are stored at −20° C. until they are to be assayed by ELISA.” left out, “(eBiosciences).” for “(eBiosciences). Human Rheumatoid Arthritis Synovial Fibroblast (RASF) Cell Line: RASF cells are cultured in Dulbecco's modified Eagle's medium with 15% FBS, 1% glutamine, and 1% penicillin/streptamycin (all from Gibco (Invitrogen), Gaithersburg, Md.).”

Native human MIF = target: T2, Native human MIF (Homo sapiens, UniProt P14174); assay: MIF tautomerase activity assay (HPP substrate); assay type: biochemical; conditions: absorbance at 300 nm
T2 sequence (P14174 2-115 limits assumed): T1 sequence (P14174 2-115 limits assumed)
Experimental: as §2
Representative MIF inhibitors were tested in the assay described above and the results tabulated in Table 1 wherein “A” represents ≦1 μM; “B” represents >1 μM and ≦100 μM; “C” represents >100 μM

[2] = read-out: percent inhibition of IL-1β production
[3] = read-out: percent inhibition of IL-6 production
[4] = read-out: percent inhibition of IL-8 production
[5] = read-out: percent inhibition of TNF-α production
[6] = read-out: percent inhibition of IL-17F production
[7] = read-out: percent inhibition of IL-22 production

Row | Structure (SMILES) | IC50 (MIF; 0 minutes, no preincubation with MIF) | IC50 (MIF; 20 minutes preincubation with MIF) | IC50 (MIF; 60 minutes preincubation with MIF) | IC50 (Native human MIF) | inhibition at 2.5 µM (LPS-stimulated PBMCs; [2]) | inhibition at 2.5 µM (LPS-stimulated PBMCs; [3]) | inhibition at 2.5 µM (LPS-stimulated PBMCs; [4]) | inhibition at 2.5 µM (LPS-stimulated PBMCs; [5]) | inhibition at 25 µM (LPS-stimulated PBMCs; [2]) | inhibition at 25 µM (LPS-stimulated PBMCs; [3]) | inhibition at 25 µM (LPS-stimulated PBMCs; [4]) | inhibition at 25 µM (LPS-stimulated PBMCs; [5]) | inhibition at 2.5 µM [1, 6] | inhibition at 2.5 µM [1, 7]
1 | N#Cc1c(NC2CN(C(=O)CCl)C2)c2ccccc2n(Cc2ccc(F)cc2)c1=O [Compound 1, 4-[1-(2-Chloro-acetyl)-azetidin-3-ylamino]-1-(4-fluoro-benzyl)-2-oxo-1,2-dihydro-quinoline-3-carbonitrile] | 24 µM | 6 µM | 3 µM | 1 to 100 µM | > 70% | 10 to 50% | 10 to 50% | 10 to 50% | > 70% | > 70% | 50 to 70% | > 70% | > 70% | > 70%
2 | C=CC(=O)N1CCN(c2c(C#N)c(=O)n(Cc3ccc(F)cc3)c3ccccc23)CC1 [Compound 2, 4-(4-acryloylpiperazin-1-yl)-1-(4-fluorobenzyl)-2-oxo-1,2-dihydroquinoline-3-carbonitrile] | – | – | – | 1 to 100 µM | > 70% | < 10% | < 10% | 10 to 50% | > 70% | < 10% | < 10% | > 70% | > 70% | 10 to 50%

The next lines start with results.

Row | IC50 (MIF; 0 minutes, no preincubation with MIF) | IC50 (MIF; 20 minutes preincubation with MIF) | IC50 (MIF; 60 minutes preincubation with MIF) | IC50 (Native human MIF) | Structure (SMILES) | inhibition at 2.5 µM (LPS-stimulated PBMCs; [2]) | inhibition at 2.5 µM (LPS-stimulated PBMCs; [3]) | inhibition at 2.5 µM (LPS-stimulated PBMCs; [4]) | inhibition at 2.5 µM (LPS-stimulated PBMCs; [5]) | inhibition at 25 µM (LPS-stimulated PBMCs; [2]) | inhibition at 25 µM (LPS-stimulated PBMCs; [3]) | inhibition at 25 µM (LPS-stimulated PBMCs; [4]) | inhibition at 25 µM (LPS-stimulated PBMCs; [5]) | inhibition at 2.5 µM [1, 6] | inhibition at 2.5 µM [1, 7]
3 | – | – | – | > 100 µM | C=CC(=O)N1CC(Nc2c(C#N)c(=O)n(CCOCC)c3ccccc23)C1 [Compound 3, 4-(1-Acryloyl-azetidin-3-ylamino)-1-(2-ethoxy-ethyl)-2-oxo-1,2-dihydro-quinoline-3-carbonitrile] | 50 to 70% | < 10% | < 10% | < 10% | 10 to 50% | < 10% | < 10% | 10 to 50% | – | –
4 | – | – | – | > 100 µM | C=CC(=O)N1CCC(Nc2c(C#N)c(=O)n(C)c3ccccc23)CC1 [Compound 4, 4-(1-Acryloyl-piperidin-4-ylamino)-1-methyl-2-oxo-1,2-dihydro-quinoline-3-carbonitrile] | 10 to 50% | 10 to 50% | < 10% | < 10% | 50 to 70% | < 10% | < 10% | 10 to 50% | – | –
5 | – | – | – | ≤ 1 µM | Cn1c(=O)c(C#N)c(NC2CCN(C(=O)c3cccs3)CC2)c2ccccc21 [Compound 5] | 50 to 70% | 10 to 50% | < 10% | 10 to 50% | > 70% | < 10% | < 10% | 50 to 70% | – | –
